{"source": "paper PMC7153038", "about": "“Pharmacologic inhibition of RGD‐binding integrins ameliorates fibrosis and improves function following kidney injury” (Physiological Reports, 2020)", "key": {"[1]": {"test_system": "aristolochic acid-induced kidney fibrosis in ICR mice", "assay": "aristolochic acid kidney injury model, kidney histology and immunofluorescence", "type": "in vivo, mouse", "settings": "AA-injured, 100 mg/kg/day s.c. minipump", "description": "(§1) Alzet osmotic minipumps (Cupertino, CA) were implanted subcutaneously in 8‐ to 10‐week‐old wild‐type male ICR outbred mice (Envigo) one day prior to induction of kidney injury to deliver vehicle (DMSO/H2O 1:1) or CWHM‐12 at a dose of 100 mg/kg per day. A single 5 mg/kg dose of aristolochic acid I sodium salt (Sigma‐Aldrich, A9451) in PBS was administered intraperitoneally to induce kidney injury, and mice were monitored daily for 27 days thereafter. Control (uninjured) mice were injected with an equal volume of PBS. Blood was obtained by maxillary vein puncture on days 0, 5 (peak injury), and 28 (study endpoint). For testing CWHM‐680, oral gavage (100 mg/kg per day) was started one day prior to injection of aristolochic acid I sodium salt and continued once daily until the study endpoint. Blood was obtained at days 0, 7, and 23 (study endpoint). […] Serum creatinine was measured by liquid chromatography–mass spectrometry (LC–MS/MS) at the University of Alabama O’Brien Center Bioanalytical Core. CWHM‐12 and CWHM‐680 concentrations were measured in plasma samples by liquid chromatography–tandem mass spectrometry (LC/MS/MS) using compound spiked into control plasma as a standard. All experiments were performed under protocols approved by the Institutional Animal Care and Use Committee at St. Louis University.\nHarvested kidneys were bisected and harvested for RNA and protein, and fixed in 4% PFA for antibody staining and histological staining with Sirius red or Masson's trichrome. Paraffin sections (4 µm) were stained with Sirius red or Masson trichrome and imaged with polarized light and bright‐field illumination. For immunofluorescence, 7‐μm frozen sections were washed with ice‐cold 100% methanol, boiled in 10 mM citric acid (pH 6) for 20 min, and incubated with primary antibodies against αSMA (Millipore), PDGFR‐β (gift from B. Stallcup), or with biotin‐LTL (Vector Laboratories). Reactivity was detected using fluorescently labeled secondary antibodies. Sections were counterstained with DAPI (Sigma‐Aldrich), mounted in Mowiol 4–88 (Poly Sciences), and digital images acquired using a Leica DM5000B epifluorescence microscope and Leica DFC365FX camera. To quantify percent area stained for Sirius red, PDGFR‐β, and α‐SMA, we analyzed images from each of at least 4 biological replicates by batch processing using a macro created in Image J. Images were converted to 8‐bit grayscale, the threshold adjusted, and percent area measured. To quantify intact proximal tubules with brush borders, LTL‐positive tubules were counted by an observer blinded to the experimental conditions using Image J."}, "[2]": {"biological_target": "T1, integrin α8β1 (Homo sapiens, UniProt P05556+P53708)", "T1 construct": "expressed in transfected cells", "T1 sequence (P53708 39-906 limits assumed)": "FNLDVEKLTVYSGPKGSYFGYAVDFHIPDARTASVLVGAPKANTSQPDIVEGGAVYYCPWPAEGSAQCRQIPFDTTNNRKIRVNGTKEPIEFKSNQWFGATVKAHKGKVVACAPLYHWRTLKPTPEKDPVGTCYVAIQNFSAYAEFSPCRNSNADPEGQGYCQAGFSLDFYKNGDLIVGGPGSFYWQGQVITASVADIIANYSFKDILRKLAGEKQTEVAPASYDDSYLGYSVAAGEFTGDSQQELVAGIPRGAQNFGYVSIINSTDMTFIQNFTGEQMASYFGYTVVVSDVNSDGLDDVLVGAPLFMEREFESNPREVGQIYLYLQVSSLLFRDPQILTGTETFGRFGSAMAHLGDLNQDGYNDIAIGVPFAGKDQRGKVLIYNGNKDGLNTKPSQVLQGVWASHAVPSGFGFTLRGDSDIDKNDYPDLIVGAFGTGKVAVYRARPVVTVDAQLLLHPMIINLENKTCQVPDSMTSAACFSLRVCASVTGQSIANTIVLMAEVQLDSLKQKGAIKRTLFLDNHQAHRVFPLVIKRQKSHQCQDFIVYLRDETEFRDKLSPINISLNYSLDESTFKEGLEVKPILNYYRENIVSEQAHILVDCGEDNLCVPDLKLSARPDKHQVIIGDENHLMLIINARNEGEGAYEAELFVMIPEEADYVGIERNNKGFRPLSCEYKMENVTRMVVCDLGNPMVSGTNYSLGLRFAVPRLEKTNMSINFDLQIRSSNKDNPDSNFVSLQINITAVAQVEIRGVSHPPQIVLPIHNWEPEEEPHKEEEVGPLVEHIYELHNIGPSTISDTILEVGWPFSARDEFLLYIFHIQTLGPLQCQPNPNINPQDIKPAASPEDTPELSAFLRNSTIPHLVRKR", "T1 sequence (P53708 907-1063 partner limits assumed)": "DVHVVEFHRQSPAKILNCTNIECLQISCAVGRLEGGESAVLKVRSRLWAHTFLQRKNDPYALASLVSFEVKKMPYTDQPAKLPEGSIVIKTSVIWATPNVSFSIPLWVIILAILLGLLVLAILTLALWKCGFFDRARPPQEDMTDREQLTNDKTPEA", "T1 sequence (P05556 21-798)": "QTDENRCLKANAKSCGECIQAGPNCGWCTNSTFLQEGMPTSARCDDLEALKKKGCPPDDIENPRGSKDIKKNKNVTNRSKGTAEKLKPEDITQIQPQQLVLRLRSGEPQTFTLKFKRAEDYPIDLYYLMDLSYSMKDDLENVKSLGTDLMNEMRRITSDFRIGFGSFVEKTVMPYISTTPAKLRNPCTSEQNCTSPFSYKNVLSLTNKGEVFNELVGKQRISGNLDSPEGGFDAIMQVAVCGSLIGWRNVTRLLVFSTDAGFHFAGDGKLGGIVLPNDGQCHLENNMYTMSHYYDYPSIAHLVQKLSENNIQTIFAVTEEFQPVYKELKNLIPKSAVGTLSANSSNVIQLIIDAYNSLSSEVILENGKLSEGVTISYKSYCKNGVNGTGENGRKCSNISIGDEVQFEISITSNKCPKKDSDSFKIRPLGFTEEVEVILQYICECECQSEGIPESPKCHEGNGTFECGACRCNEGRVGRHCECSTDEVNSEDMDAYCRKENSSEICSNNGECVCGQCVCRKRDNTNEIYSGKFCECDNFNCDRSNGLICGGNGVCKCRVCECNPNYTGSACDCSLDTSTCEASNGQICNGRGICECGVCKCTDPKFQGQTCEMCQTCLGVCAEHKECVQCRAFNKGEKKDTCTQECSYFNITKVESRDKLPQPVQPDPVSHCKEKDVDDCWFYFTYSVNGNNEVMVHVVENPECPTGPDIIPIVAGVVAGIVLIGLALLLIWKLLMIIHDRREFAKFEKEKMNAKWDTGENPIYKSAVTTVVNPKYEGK", "assay": "integrin α8β1-mediated attachment of transfected HEK-293 cells to mouse nephronectin", "type": "cell-based", "settings": "mean and SD, at least 3 independent assays; transfected HEK-293, nephronectin; read-out: IC50, inhibition of α8β1-mediated cell attachment", "description": "(§2) The RGD peptidomimetic CWHM‐12 was synthesized as described in detail previously (Henderson et al., 2013). A close structural analog of this compound with improved oral bioavailability, CWHM‐680, was also synthesized at Saint Louis University. Potency for the compounds in blocking cell attachment mediated by integrins αvβ3, αvβ5, and αvβ6 was measured as previously described (Henderson et al., 2013). Potency for blocking cell attachment mediated by integrins αvβ1, αvβ8, and α8β1 was measured using modifications of this method which are briefly summarized as follows: To assess CWHM‐12 and CWHM‐680 effects on cellular αvβ1 function, we varied its concentration in an assay measuring binding of HEK‐293 cells, which naturally express this integrin (Nagarajan et al., 2007), to the surface of 96‐well plates coated with purified recombinant human TGFβ‐1 latency‐associated peptide (R&D Systems). To assess the effect on cellular αvβ8 function, we performed the assay with the same LAP ligand but with HEK‐293 cells which had been stably transfected to overexpress this integrin. To assess the effect on cellular α8β1 function, we performed the assay using HEK‐293 cells, which had been stably transfected to overexpress this integrin and used purified recombinant mouse nephronectin as the immobilized ligand (R&D Systems). […]"}, "[3]": {"biological_target": "integrin αvβ5 (Homo sapiens, UniProt P06756+P18084)", "assay": "integrin αvβ5-mediated cell attachment to ligand", "type": "cell-based", "settings": "mean and SD, at least 3 independent assays; read-out: IC50, inhibition of αvβ5-mediated cell attachment", "description": "as §2"}, "[4]": {"biological_target": "integrin αvβ6 (Homo sapiens, UniProt P06756+P18564)", "sequence (P06756 31-889 limits assumed)": "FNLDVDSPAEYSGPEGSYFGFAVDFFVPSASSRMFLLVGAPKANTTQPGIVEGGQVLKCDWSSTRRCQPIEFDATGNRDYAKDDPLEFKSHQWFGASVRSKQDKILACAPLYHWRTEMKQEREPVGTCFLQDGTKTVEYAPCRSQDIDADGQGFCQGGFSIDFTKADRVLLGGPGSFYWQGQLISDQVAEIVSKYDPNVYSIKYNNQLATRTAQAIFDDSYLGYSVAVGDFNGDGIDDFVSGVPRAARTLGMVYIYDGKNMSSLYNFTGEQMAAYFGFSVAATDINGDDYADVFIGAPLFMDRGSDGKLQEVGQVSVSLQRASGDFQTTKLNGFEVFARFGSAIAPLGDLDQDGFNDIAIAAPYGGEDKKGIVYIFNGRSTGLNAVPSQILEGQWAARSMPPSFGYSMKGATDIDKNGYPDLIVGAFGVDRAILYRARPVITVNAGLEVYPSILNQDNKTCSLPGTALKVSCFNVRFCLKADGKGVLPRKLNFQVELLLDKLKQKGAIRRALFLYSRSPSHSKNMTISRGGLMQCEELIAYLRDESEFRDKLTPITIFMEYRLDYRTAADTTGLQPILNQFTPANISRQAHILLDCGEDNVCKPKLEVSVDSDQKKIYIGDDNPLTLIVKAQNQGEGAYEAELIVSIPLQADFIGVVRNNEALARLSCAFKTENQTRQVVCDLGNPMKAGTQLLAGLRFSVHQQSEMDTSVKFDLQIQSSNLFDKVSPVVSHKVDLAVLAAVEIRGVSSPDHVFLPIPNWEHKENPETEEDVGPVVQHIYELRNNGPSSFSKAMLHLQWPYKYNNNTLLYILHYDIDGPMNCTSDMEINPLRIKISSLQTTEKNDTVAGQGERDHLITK", "sequence (P06756 891-1048 partner limits assumed)": "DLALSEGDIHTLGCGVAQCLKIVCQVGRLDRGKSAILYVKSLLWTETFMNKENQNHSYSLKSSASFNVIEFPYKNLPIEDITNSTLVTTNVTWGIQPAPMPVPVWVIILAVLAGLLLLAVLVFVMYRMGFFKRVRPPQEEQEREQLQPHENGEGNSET", "sequence (P18564 22-788)": "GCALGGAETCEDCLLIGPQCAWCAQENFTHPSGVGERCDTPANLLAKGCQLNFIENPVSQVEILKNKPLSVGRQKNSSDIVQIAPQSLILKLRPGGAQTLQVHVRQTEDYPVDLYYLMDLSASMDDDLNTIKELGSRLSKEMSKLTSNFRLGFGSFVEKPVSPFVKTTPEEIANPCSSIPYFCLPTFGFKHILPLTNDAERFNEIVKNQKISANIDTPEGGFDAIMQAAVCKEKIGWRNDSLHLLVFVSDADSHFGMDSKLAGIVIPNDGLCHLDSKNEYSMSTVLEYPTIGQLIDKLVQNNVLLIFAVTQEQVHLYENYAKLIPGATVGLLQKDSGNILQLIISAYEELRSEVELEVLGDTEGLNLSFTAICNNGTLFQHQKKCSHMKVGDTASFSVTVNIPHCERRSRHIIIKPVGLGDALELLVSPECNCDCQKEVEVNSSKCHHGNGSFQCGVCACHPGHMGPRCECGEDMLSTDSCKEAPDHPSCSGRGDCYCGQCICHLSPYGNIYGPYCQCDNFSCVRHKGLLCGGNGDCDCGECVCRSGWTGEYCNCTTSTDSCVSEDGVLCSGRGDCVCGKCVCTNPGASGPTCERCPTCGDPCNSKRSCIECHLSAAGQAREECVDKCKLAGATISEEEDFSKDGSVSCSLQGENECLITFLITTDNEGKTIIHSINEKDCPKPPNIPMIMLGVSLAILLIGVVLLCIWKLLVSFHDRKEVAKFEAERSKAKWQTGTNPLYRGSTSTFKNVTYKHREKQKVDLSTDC", "assay": "integrin αvβ6-mediated cell attachment to ligand", "type": "cell-based", "settings": "mean and SD, at least 3 independent assays, read-out: IC50, inhibition of αvβ6-mediated cell attachment", "description": "as §2"}, "[5]": {"test_system": "integrin αIIbβ3", "set-up": "method as in Henderson et al., 2013", "settings": "no significant activity; ref Henderson et al., 2013; read-out: activity against integrin αIIbβ3; cited from earlier work"}, "[6]": {"test_system": "non‐RGD‐binding integrins", "set-up": "method as in Henderson et al., 2013", "settings": "ref Henderson et al., 2013; cited from earlier work"}, "[7]": {"biological_target": "T2, integrin αvβ8 (Homo sapiens, UniProt P06756+P26012)", "T2 construct": "expressed in transfected cells", "T2 sequence (P06756 31-889 limits assumed)": "as the sequence (P06756 31-889 limits assumed) above", "T2 sequence (P06756 891-1048 partner limits assumed)": "as the sequence (P06756 891-1048 partner limits assumed) above", "T2 sequence (P26012 43-769)": "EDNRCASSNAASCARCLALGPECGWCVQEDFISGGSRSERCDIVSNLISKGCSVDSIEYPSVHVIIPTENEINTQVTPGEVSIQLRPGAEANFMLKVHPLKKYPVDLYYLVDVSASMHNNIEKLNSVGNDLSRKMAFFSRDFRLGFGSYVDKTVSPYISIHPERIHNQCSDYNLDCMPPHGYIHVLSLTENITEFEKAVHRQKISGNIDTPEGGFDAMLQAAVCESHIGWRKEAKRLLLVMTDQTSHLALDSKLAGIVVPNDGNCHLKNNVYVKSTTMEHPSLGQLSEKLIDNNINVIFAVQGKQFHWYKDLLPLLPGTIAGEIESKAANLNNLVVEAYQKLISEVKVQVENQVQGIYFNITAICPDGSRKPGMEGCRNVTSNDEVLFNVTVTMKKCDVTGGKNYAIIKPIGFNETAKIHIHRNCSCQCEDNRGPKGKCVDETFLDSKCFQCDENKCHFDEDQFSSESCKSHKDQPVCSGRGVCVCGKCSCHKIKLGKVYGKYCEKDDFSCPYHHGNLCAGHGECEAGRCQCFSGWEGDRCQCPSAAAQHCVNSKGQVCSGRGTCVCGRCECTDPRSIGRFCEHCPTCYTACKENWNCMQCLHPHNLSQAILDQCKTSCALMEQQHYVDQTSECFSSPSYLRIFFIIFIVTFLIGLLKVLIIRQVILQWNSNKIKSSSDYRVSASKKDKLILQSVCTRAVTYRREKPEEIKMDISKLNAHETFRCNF", "assay": "integrin αvβ8-mediated attachment of transfected HEK-293 cells to LAP", "type": "cell-based", "settings": "mean and SD, at least 3 independent assays; transfected HEK-293, LAP ligand; read-out: IC50, inhibition of αvβ8-mediated cell attachment", "description": "as §2"}, "[8]": {"assay": "plasma compound concentration by LC/MS/MS", "type": "in vivo, mouse", "settings": "100 mg/kg per day s.c. by Alzet minipump", "description": "as §1"}, "[9]": {"test_system": "Collagen 1 protein in kidney", "assay": "aristolochic acid kidney injury model, Collagen 1 Western blot", "type": "in vivo, mouse", "settings": "AA-injured, 100 mg/kg/day s.c. minipump", "description": "as §1, with “University. […]” for “University.”"}}, "note": "Read-outs that look alike come from different tables or passages of the source."}
{"smiles": "CC(C)(C)c1cc(Br)cc([C@H](CC(=O)O)NC(=O)CNC(=O)c2cc(O)cc(NC3=NCC(O)CN3)c2)c1", "note": "(stereo partly drawn) [CWHM‐12]", "values": [{"measurement": "Masson trichrome staining, collagen deposition vs vehicle", "setting": "[1]", "result": "reduced collagen deposition"}, {"measurement": "reduction in percent area stained for PDGFR‐β vs vehicle", "setting": "[1]", "result": 44, "unit": "%"}, {"measurement": "reduction in percent area stained for αSMA vs vehicle", "setting": "[1]", "result": 45, "unit": "%"}, {"measurement": "reduction in percent area stained by Sirius red vs vehicle", "setting": "[1]; day 27", "result": 68, "unit": "%"}, {"measurement": "number of intact proximal tubules (LTL staining)", "setting": "[1]; 27 days, vehicle 40.9 ± 1.6", "result": "57.1 ± 1.7"}, {"measurement": "IC50", "setting": "[2]", "result": "35 ± 16", "unit": "nM"}, {"measurement": "IC50", "setting": "[3]", "result": "47 ± 26", "unit": "nM"}, {"measurement": "IC50", "setting": "[4]; listed as CWHM−12", "result": "0.31 ± 0.14", "unit": "nM"}, {"measurement": "IC50", "setting": "[4]", "result": "< 1", "unit": "nM"}, {"measurement": "IC50", "setting": "[5]", "result": "> 5000", "unit": "nM"}, {"measurement": "effect on ligand binding by non‐RGD‐binding integrins", "setting": "[6]", "result": "nor does it affect ligand binding"}, {"measurement": "IC50", "setting": "[7]", "result": "5.8 ± 2.3", "unit": "nM"}, {"measurement": "mean steady plasma drug concentration", "setting": "[8]", "result": "approximately 5 µg/ml"}, {"measurement": "Collagen 1 protein reduction by Western blot compared with vehicle", "setting": "[9]; day 27", "result": "threefold"}, {"measurement": "Collagen 1 densitometry normalized to HDAC2", "setting": "[9]; vehicle 2.14 ± 0.39", "result": "0.719 ± 0.13", "unit": "arbitrary units"}]}
